How the values were obtained:
Test in all cases: Bliss excess, mean over the matrix (fraction); higher = more synergy
[1] = system: BFTC-909 (Kidney Carcinoma)
Procedure, shortened: (§1)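 Cell lines in DMEM/F12 or RPMI with 10% FBS were plated in 1536-well plates, held 24 hours at 37°C, 5% CO2, then given two-drug dose matrices for 72 hours (DMSO typically 0.2%). Viability was read by CellTiter-Glo 2.0 luminescence and scaled as inhibition from 0 (vehicle wells) to 1 (blank wells). Combination Emax is the second-highest inhibition in the matrix; Bliss excess is observed combination effect minus expected EA + EB − EA·EB, EA and EB being single-agent effects.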

[2] = system: SW1710 (Bladder Carcinoma)
Procedure, shortened: as §1

[3] = system: NUGC-4 (Gastric Carcinoma)
Procedure, shortened: as §1

[4] = system: NCI-H1568 (Lung Adenocarcinoma)
Procedure, shortened: as §1

[5] = system: OE21 (Esophageal Squamous Cell Carcinoma)
Procedure, shortened: as §1

[6] = system: WSU-NHL (B-Cell Non-Hodgkin's Lymphoma)
Procedure, shortened: as §1

[7] = system: Detroit562 (Head and Neck Carcinoma)
Procedure, shortened: as §1

[8] = system: YAPC (Pancreatic Carcinoma)
Procedure, shortened: as §1

[9] = system: ESS-1 (Other Solid Carcinomas)
Procedure, shortened: as §1

[10] = system: LOXIMVI (Melanoma)
Procedure, shortened: as §1

[11] = system: TGBC1TKB (Biliary Tract Carcinoma)
Procedure, shortened: as §1

[12] = system: KS-1 (Glioblastoma)
Procedure, shortened: as §1

[13] = system: FTC-133 (Thyroid Gland Carcinoma)
Procedure, shortened: as §1

[14] = system: KYAE-1 (Esophageal Adenocarcinoma)
Procedure, shortened: as §1

[15] = system: CAL-33 (Oral Cavity Carcinoma)
Procedure, shortened: as §1

[16] = system: SNU-16 (Gastric Carcinoma)
Procedure, shortened: as §1

[17] = system: OVCAR-5 (Ovarian Carcinoma)
Procedure, shortened: as §1

[18] = system: SAS (Oral Cavity Carcinoma)
Procedure, shortened: as §1

[19] = system: KMRC-20 (Kidney Carcinoma)
Procedure, shortened: as §1

SMILES | Bliss excess [1] | Bliss excess [2] | Bliss excess [3] | Bliss excess [4] | Bliss excess [5] | Bliss excess [6] | Bliss excess [7] | Bliss excess [8] | Bliss excess [9] | Bliss excess [10] | Bliss excess [11] | Bliss excess [12] | Bliss excess [13] | Bliss excess [14] | Bliss excess [15] | Bliss excess [16] | Bliss excess [17] | Bliss excess [18] | Bliss excess [19]
CN(C)CCCOc1ccc(-c2ccc3ncc4c(c3c2)n(C2CCOCC2)c(=O)n4C)cn1 [AZD0156] + C[C@@H]1COCCN1C2=NC(=NC(=C2)C3(CC3)[S@](=N)(=O)C)C4=C5C=CNC5=NC=C4 [AZD6738] (first compound max 1 µM, 7x7, partner max 10 µM) | 0.027 | -0.0134 | 0.0101 | -0.0424 | 0.0015 | -0.0252 | 0.0477 | -0.0354 | -0.0177 | 0.0721 | -0.0227 | -0.0267 | -0.0043 | -0.011 | -0.0178 | 0.0529 | -0.001 | -0.0363 | -0.031
C=CCn1c(=O)c2cnc(Nc3ccc(N4CCN(C)CC4)cc3)nc2n1-c1cccc(C(C)(C)O)n1 [AZD1775] + C[C@@H]1COCCN1C2=NC(=NC(=C2)C3(CC3)[S@](=N)(=O)C)C4=C5C=CNC5=NC=C4 [AZD6738] (first compound max 1 µM, partner max 10 µM) | 0.0858 | 0.0811 | -0.0701 | -0.0346 | -0.0207 | 0.0013 | -0.002 | -0.0399 | -0.015 | -0.0609 | 0.0388 | -0.0042 | 0.0508 | 0.026 | 0.0324 | -0.0002 | 0.0146 | 0.0138 | 0.0174
C=CCn1c(=O)c2cnc(Nc3ccc(N4CCN(C)CC4)cc3)nc2n1-c1cccc(C(C)(C)O)n1 [AZD1775] + O=C(c1cc(Cc2n[nH]c(=O)c3ccccc23)ccc1F)N1CCN(C(=O)C2CC2)CC1 [Olaparib] (first compound max 1 µM, partner max 10 µM) | 0.0075 | -0.0299 | -0.0481 | -0.0745 | -0.0216 | -0.025 | -0.0389 | -0.071 | -0.0316 | -0.0897 | -0.0558 | -0.0097 | -0.0645 | -0.0006 | -0.0073 | 0.0102 | -0.041 | -0.0939 | -0.112
CCN(CCO)CCCOc1ccc2c(Nc3cc(CC(=O)Nc4cccc(F)c4)[nH]n3)ncnc2c1 [AZD2811] + C=CCn1c(=O)c2cnc(Nc3ccc(N4CCN(C)CC4)cc3)nc2n1-c1cccc(C(C)(C)O)n1 [AZD1775] (first compound max 1 µM, partner max 1 µM) | 0.0293 | 0.0084 | -0.0708 | -0.0301 | -0.0577 | -0.0761 | 0.05 | -0.0392 | 0.042 | 0.0351 | -0.0195 | 0.0223 | 0.0641 | -0.0176 | -0.0365 | 0.0538 | -0.0616 | -0.0526 | -0.0562
CCN(CCO)CCCOc1ccc2c(Nc3cc(CC(=O)Nc4cccc(F)c4)[nH]n3)ncnc2c1 [AZD2811] + C[C@@H]1COCCN1C2=NC(=NC(=C2)C3(CC3)[S@](=N)(=O)C)C4=C5C=CNC5=NC=C4 [AZD6738] (first compound max 1 µM, 7x7, partner max 10 µM) | -0.0231 | -0.0975 | -0.0565 | -0.0514 | -0.142 | -0.0665 | -0.0108 | -0.0367 | -0.018 | -0.0763 | -0.0184 | -0.0711 | 0.0103 | -0.0234 | -0.0199 | -0.0281 | -0.0429 | -0.0354 | -0.0667
CCN(CCO)CCCOc1ccc2c(Nc3cc(CC(=O)Nc4cccc(F)c4)[nH]n3)ncnc2c1 [AZD2811] + O=C(c1cc(Cc2n[nH]c(=O)c3ccccc23)ccc1F)N1CCN(C(=O)C2CC2)CC1 [Olaparib] (first compound max 1 µM, 7x7, partner max 10 µM) | 0.0468 | 0.0073 | 0 | -0.0472 | 0.0043 | -0.0841 | 0.0133 | -0.0124 | 0.021 | 0.0073 | -0.0368 | 0.0053 | -0.0174 | 0.0093 | 0.0044 | -0.0101 | -0.0048 | 0.0114 | 0.0017
C[C@@H]1COCCN1c1cc(C2([S@](C)(=N)=O)CC2)nc(-c2ccnc3[nH]ccc23)n1 [AZD6738] + O=C(c1cc(Cc2n[nH]c(=O)c3ccccc23)ccc1F)N1CCN(C(=O)C2CC2)CC1 [Olaparib] (first compound max 10 µM, 7x7, partner max 10 µM) | 0.0337 | -0.0498 | -0.0163 | -0.0358 | -0.007 | -0.0379 | 0.0381 | -0.0007 | 0.0107 | -0.0956 | -0.0578 | 0 | -0.0401 | -0.0082 | 0.0047 | -0.0054 | -0.0994 | -0.0361 | -0.0101
COc1cccc2c1C(=O)c1c(O)c3c(c(O)c1C2=O)C[C@@](O)(C(=O)CO)C[C@@H]3O[C@H]1C[C@H](N)[C@H](O)[C@H](C)O1 [Doxorubicin] + Cc1cc2ncnn2cc1Nc1ncc2c(n1)n(C1CCOCC1)c(=O)n2C [AZD7648] (first compound max 1 µM, 7x7, partner max 10 µM) | 0.0402 | 0.0569 | 0.0402 | -0.0357 | 0.0511 | 0.0404 | 0.103 | -0.0304 | 0.0112 | 0.0582 | -0.0247 | 0.0176 | 0.0917 | 0.0242 | 0.0998 | 0.0506 | -0.0058 | 0.0996 | 0.046
COc1cccc(OCCCN)c1-c1cc(Nc2cnc(C#N)cn2)n[nH]1 [Prexasertib] + C=CCn1c(=O)c2cnc(Nc3ccc(N4CCN(C)CC4)cc3)nc2n1-c1cccc(C(C)(C)O)n1 [AZD1775] (first compound max 1 µM, partner max 1 µM) | 0.11 | 0.12 | 0.0569 | 0.0284 | -0.0663 | 0.0303 | 0.0416 | 0.0441 | 0.0299 | 0.0467 | 0.0068 | -0.0244 | -0.0182 | 0.103 | 0.117 | 0.0756 | 0.044 | 0.0405 | -0.0104
COc1cccc(OCCCN)c1-c1cc(Nc2cnc(C#N)cn2)n[nH]1 [Prexasertib] + CN(C)CCCOc1ccc(-c2ccc3ncc4c(c3c2)n(C2CCOCC2)c(=O)n4C)cn1 [AZD0156] (first compound max 1 µM, 7x7, partner max 1 µM) | -0.0397 | -0.022 | 0.0697 | -0.032 | -0.0949 | -0.0066 | -0.014 | -0.0799 | -0.0668 | 0.0398 | -0.0053 | -0.0131 | -0.0596 | 0.0184 | -0.0018 | -0.0135 | -0.0273 | 0.0109 | -0.0382
COc1cccc(OCCCN)c1-c1cc(Nc2cnc(C#N)cn2)n[nH]1 [Prexasertib] + C[C@@H]1COCCN1C2=NC(=NC(=C2)C3(CC3)[S@](=N)(=O)C)C4=C5C=CNC5=NC=C4 [AZD6738] (first compound max 1 µM, 7x7, partner max 10 µM) | 0.0417 | 0.0092 | -0.0203 | -0.0668 | 0.0084 | 0.0077 | -0.0311 | 0.0689 | 0.0056 | -0.0165 | -0.0064 | -0.0298 | 0.0016 | 0.0651 | 0.0296 | -0.0058 | 0.0185 | 0.0203 | 0.0013
COc1cccc(OCCCN)c1-c1cc(Nc2cnc(C#N)cn2)n[nH]1 [Prexasertib] + Cc1cc2ncnn2cc1Nc1ncc2c(n1)n(C1CCOCC1)c(=O)n2C [AZD7648] (first compound max 1 µM, 7x7, partner max 10 µM) | 0.0182 | -0.045 | 0.0137 | -0.0303 | -0.0116 | -0.0355 | -0.0342 | -0.0172 | -0.0296 | 0.0017 | -0.0747 | 0.0198 | -0.0311 | 0.0382 | 0.0099 | -0.0059 | -0.0016 | -0.0247 | -0.0474
COc1cccc(OCCCN)c1-c1cc(Nc2cnc(C#N)cn2)n[nH]1 [Prexasertib] + O=C(c1cc(Cc2n[nH]c(=O)c3ccccc23)ccc1F)N1CCN(C(=O)C2CC2)CC1 [Olaparib] (first compound max 1 µM, 7x7, partner max 10 µM) | -0.0109 | -0.0857 | -0.019 | -0.0593 | -0.0499 | -0.0532 | -0.0467 | -0.0491 | 0.0054 | -0.0372 | -0.0767 | -0.0439 | -0.0399 | 0.0116 | -0.012 | -0.0417 | -0.17 | -0.0104 | -0.0735

— the supplement of paper PMC11061612
